From US20110060156A1, “Pyruvate Derivatives with Neuroprotective Effect, Process for Preparing the Same and Pharmaceutical Composition Comprising the Same” (S.H. PHARMA., LTD., priority 2008, published 2011)
Structures can show the parent of a compound that is named as a salt.

How the values were obtained:
[1] = system: model of focal ischemic stroke (middle cerebral artery occlusion, MCAO); test: Cerebral infarction inhibition in animal model of focal ischemic stroke (MCAO 1 hour, TTC staining, infarct volume); assay type: in vivo, rat; details: for inhibition effect of cerebral infarction: 30 minutes before MCAO (1 hour)
Experimental: A model of focal ischemic stroke in the rat according to the Longa's method (1989) was used. The animal model of stroke was established by occluding the middle cerebral artery (MCA) for 1 hour using nylon suture (middle cerebral artery occlusion, MCAO). In order to investigate the effect of pyruvate derivatives according to the present invention on cerebral ischemia, a rat was decapitated after reperfusion. The whole brain was sliced into 2 mm-thick coronal slices. The slices were immediately stained by immersing in 1% 2,3,5-triphenyl tetrazolium chloride (TTC). After keeping in 4% paraformaldehyde solution at 37° C. for 15 minutes, the brain slices were subjected to measurement and analysis using Quantity One software (Bio-Rad, Hercules, Calif., USA).

[2] = system: stroke animal model (ischemia-reperfusion); details: cited from earlier work
[3] = 1 mg/kg intravenously, 6 hours after reperfusion
[4] = 1 mg/kg intravenously, 12 hours after reperfusion
[5] = 5 mg/kg intravenously, 6 hours after reperfusion
[6] = 5 mg/kg intravenously, 12 hours after reperfusion
[7] = 10 mg/kg intravenously, 6 hours after reperfusion
[8] = 10 mg/kg intravenously, 12 hours after reperfusion

CC(=O)C(=O)Oc1cc(C(F)(F)F)ccc1C(=O)O (as salt: potassium) [2-(2-oxopropanoyloxy)-4-(trifluoromethyl)benzoic acid]
melting point: 163 °C

CC(=O)C(=O)Oc1cc(C(F)(F)F)ccc1C(=O)O [2-(2-oxopropanoyloxy)-4-(trifluoromethyl)benzoic acid]
inhibition effect of cerebral infarction as compared to the control group ([1]; 5 mg/kg intravenously, MCAO 1 hour, time not stated in b180 (FIG. 8: 6 hours following MCAO)): 71.3%

CC(=O)C(=O)Oc1ccc(NCc2c(F)c(F)c(C(F)(F)F)c(F)c2F)cc1C(=O)O [2-(2-oxopropanoyloxy)-5-(2,3,5,6-tetrafluoro-4-(trifluoromethyl)benzylamino)benzoic acid]
inhibition effect of cerebral infarction ([1]; 1 mg/kg intravenously): 20.2% | change in the infarct volume [1, 3]: no change | change in the infarct volume [1, 4]: no change | inhibition effect of cerebral infarction ([1]; 5 mg/kg intravenously): 90.9% | infarct volume reduced to, as compared to the control group [1, 5]: 24.5% | infarct volume reduced to, as compared to the control group [1, 6]: 56.8% | inhibition effect of cerebral infarction ([1]; 10 mg/kg intravenously): 88.4% | infarct volume reduced to, as compared to the control group [1, 7]: 33.3% | infarct volume reduced to, as compared to the control group [1, 8]: 62.4% | melting point: 128 °C

CC(=O)C(=O)Oc1ccccc1C(=O)O [2-(2-oxopropanoyloxy)benzoic acid]
inhibition effect of cerebral infarction ([1]; 1 mg/kg intravenously): 42.0% | change in the infarct volume [1, 3]: no change | change in the infarct volume [1, 4]: no change | inhibition effect of cerebral infarction ([1]; 5 mg/kg intravenously): 90.2% | infarct volume reduced to, as compared to the control group [1, 5]: 47.5% | infarct volume reduced to, as compared to the control group [1, 6]: 57.4% | inhibition effect of cerebral infarction ([1]; 10 mg/kg intravenously): 89.5% | infarct volume reduced to, as compared to the control group [1, 7]: 26.6% | infarct volume reduced to, as compared to the control group [1, 8]: 64.3%

CC(=O)C(=O)NCCC(Oc1ccc(C(F)(F)F)cc1)c1ccccc1 (stereo not shown) [2-oxo-N-(3-phenyl-3-(4-(trifluoromethyl)phenoxy)propyl)propanamide]
infarct volume reduced to, as compared to the control group [1, 7]: 58.7%

CC(=O)C(=O)N(C)CCC(Oc1ccc(C(F)(F)F)cc1)c1ccccc1 (stereo not shown) [N-methyl-2-oxo-N-(3-phenyl-3-(4-(trifluoromethyl)phenoxy)propyl)propanamide]
infarct volume reduced to, as compared to the control group [1, 7]: 16.0%

CCOC(=O)C(C)=O [ethyl pyruvate]
infarct size reduced to ([2]; abdominally administered within 12 hours after ischemia-reperfusion): ≤ 50% | infarct size reduced by ([2]; treatment within 24 hours): about 20%
